What was measured:
[1] = system: HCV genotype 1a Y93H variant with tyrosine 93 changed to histidine in the NS5A protein; assay: microbe, parasite or virus in culture; format: cell-based; conditions: genotype 1a Y93H replicon; test compound titrated with compound N47 fixed at 200 nM versus singly
Method: Combinations can be examined for synergistic activity using a variety of putative NS5A-targeting compounds and a variety of test compounds. […] The test compound can be chosen from compounds exemplified below, which were prepared by methods known in the art, or from others disclosed in the literature.
Similarly, BMS-790052 can be tested singly and in combination with a fixed amount of compound N47 in the HCV replicon cell based assay consisting of the genotype 1a Y93H variant with tyrosine 93 changed to histidine in the NS5A protein.

[2] = system: HCV genotype 1a L31V variant with leucine 31 changed to valine in the NS5A protein; assay: microbe, parasite or virus in culture; format: cell-based; conditions: genotype 1a L31V replicon; test compound titrated with compound N47 fixed at 200 nM versus singly

Row | Compound | Fold-Synergistic G-1a (Y93H) [1] [fold] | Fold-Synergistic G-1a (L31V) [2] [fold]
1 | O=C(Nc1ccc(-c2nnc(-c3ccc(NC(=O)[C@@H]4CCCN4C(=O)Cc4cccnc4)cc3)o2)cc1)[C@@H]1CCCN1C(=O)Cc1cccnc1 | <10 | <10
2 | Cc1nc(-c2ccc(NC(=O)[C@@H]3CCCN3C(=O)Cc3ccccc3)cc2)c(-c2ccc(NC(=O)[C@@H]3CCCN3C(=O)Cc3ccccc3)cc2)s1 | <10 | <10
3 | CC(=O)N1CCC[C@H]1C(=O)Nc1ccc(-c2nc(-c3ccc(NC(=O)[C@@H]4C=CCN4C(=O)Cc4ccccc4)cc3)cs2)cc1 | <10 | <10
4 | COC(=O)N[C@H](C(=O)N1CCC[C@H]1c1nc(-c2cccc(-c3ccc4nc([C@@H]5CCCN5C(=O)[C@@H](NC(=O)OC)C(C)C)[nH]c4c3)c2)c[nH]1)C(C)C | <10 | <10
5 | COC(=O)N[C@H](C(=O)N1CCC[C@H]1c1nc2ccc(-c3cnc(-c4cccc5nc([C@@H]6CCCN6C(=O)[C@@H](NC(=O)OC)C(C)C)[nH]c45)o3)cc2[nH]1)C(C)C | >100 | <10
6 | COC(=O)N[C@H](C(=O)N1CCC[C@H]1c1ncc(-c2ccc(-c3ccc4c(c3)CCCc3[nH]c([C@@H]5CCCN5C(=O)[C@@H](NC(=O)OC)C(C)C)nc3-4)cc2)[nH]1)C(C)C | >100 | >100
7 | COC(=O)N[C@H](C(=O)N1CCC[C@H]1c1nc2cc(C#Cc3ccc4[nH]c([C@@H]5CCCN5C(=O)[C@@H](NC(=O)OC)C(C)C)nc4c3)ccc2[nH]1)C(C)C | >10 | <10
8 | CCN(CC)[C@@H](C(=O)N1CCC[C@H]1c1nc2c([nH]1)CCCc1cc(-c3ccc4nc([C@@H]5CCCN5C(=O)[C@@H](c5ccccc5)N(CC)CC)[nH]c4c3)ccc1-2)c1ccccc1 | <10 | <10
9 | COC(=O)N[C@H](C(=O)N1CCC[C@H]1c1nc(C2=CCC(C3CC=C(c4c[nH]c([C@@H]5CCCN5C(=O)[C@@H](NC(=O)OC)C(C)C)n4)CC3)CC2)c[nH]1)C(C)C (stereo partly shown) | >100 | >100
10 | COC(=O)N[C@H](C(=O)N1CCC[C@H]1c1ncc(-c2ccc(-c3ccc4c(c3)CCc3nc([C@@H]5CCCN5C(=O)[C@@H](NC(=O)OC)C(C)C)[nH]c3-4)cc2)[nH]1)C(C)C | >100 | >100
11 | COC(=O)N[C@H](C(=O)N1CC(F)(F)C[C@H]1c1nc(-c2ccc(-c3ccc(-c4c[nH]c([C@@H]5CC(F)(F)CN5C(=O)[C@@H](NC(=O)OC)C(C)C)n4)cc3)cc2)c[nH]1)C(C)C | >100 | >100
12 | COC(=O)N[C@H](C(=O)N1CCC[C@H]1c1nc(-c2ccc(-c3ccc4c(c3)CCCCc3[nH]c([C@@H]5CCCN5C(=O)[C@@H](NC(=O)OC)C(C)C)nc3-4)cc2)c[nH]1)C(C)C | >100 | >100
13 | COC(=O)N[C@H](C(=O)N1[C@@H]2C[C@@H]2C[C@H]1c1ncc(-c2ccc(-c3ccc(-c4cnc([C@@H]5C[C@H]6C[C@H]6N5C(=O)[C@@H](NC(=O)OC)C(C)C)[nH]4)cc3)cc2)[nH]1)C(C)C | >100 | >100
14 | COC(=O)N[C@@H](C)C(=O)N1[C@@H]2CC[C@@H](C2)[C@H]1c1nc(-c2ccc(-c3ccc(-c4cnc([C@@H]5[C@H]6CC[C@H](C6)N5C(=O)[C@H](C)NC(=O)OC)[nH]4)cc3)cc2)c[nH]1 | <10 | >10
15 | COC(=O)N[C@H](C(=O)N1[C@@H](C)CC[C@H]1c1ncc(-c2ccc(-c3ccc(-c4cnc([C@@H]5CC[C@H](C)N5C(=O)[C@@H](NC(=O)OC)C(C)C)[nH]4)cc3)cc2)[nH]1)C(C)C | >100 | >100
16 | COC(=O)N[C@H](C(=O)N1CCn2c(-c3ccc(-c4ccc(-c5cnc6n5CCN(C(=O)[C@@H](NC(=O)OC)C(C)C)C6)cc4)cc3)cnc2C1)C(C)C | <10 | <10
17 | COC(=O)N[C@H](C(=O)N1CCC[C@H]1c1nc2ccc3cc(-c4ccc5c(ccc6nc([C@@H]7CCCN7C(=O)[C@@H](NC(=O)OC)C(C)C)[nH]c65)c4)ccc3c2[nH]1)C(C)C | >100 | >100
18 | COC(=O)N[C@H](C(=O)N1[C@@H]2CC[C@@H]2C[C@H]1c1nc(-c2ccc(-c3ccc(-c4cnc([C@@H]5C[C@H]6CC[C@H]6N5C(=O)[C@@H](NC(=O)OC)C(C)C)[nH]4)cc3)cc2)c[nH]1)C(C)C | >100 | >100

Row | Compound | Fold-Synergistic G-1a (Y93H) [1] [fold] | Fold-Synergistic G-1a (L31V) [2] [fold]
19 | COC(=O)N[C@H](C(=O)N1[C@H](C)CC[C@H]1c1ncc(-c2ccc(-c3ccc(-c4cnc([C@@H]5CC[C@@H](C)N5C(=O)[C@@H](NC(=O)OC)C(C)C)[nH]4)cc3)cc2)[nH]1)C(C)C | >100 | >100
20 | COC(=O)N[C@H](C(=O)N1[C@@H]2C[C@@H]2C[C@H]1c1nc2ccc(-c3ccc(-c4ccc5nc([C@@H]6C[C@H]7C[C@H]7N6C(=O)[C@@H](NC(=O)OC)C(C)C)[nH]c5c4)cc3)cc2[nH]1)C(C)C | >100 | >10
21 | CC[C@H](NC(=O)OC)C(=O)N1[C@@H]2C[C@@H]2C[C@H]1c1ncc(-c2ccc(C34CCC(c5cnc([C@@H]6C[C@H]7C[C@H]7N6C(=O)[C@H](CC)NC(=O)OC)[nH]5)(CC3)CC4)cc2)[nH]1 | >100 | >100
22 | CN(C)[C@@H](C(=O)N1CCC[C@H]1c1ncc(-c2ccc(-c3ccc(-c4cnc([C@@H]5CCCN5C(=O)[C@@H](c5ccccc5)N(C)C)[nH]4)s3)s2)[nH]1)c1ccccc1 | <10 | <10
23 | COC(=O)N[C@H](C(=O)N1[C@@H]2C[C@@H]2C[C@H]1c1nc2cc(Oc3cccc(-c4ccc5[nH]c([C@@H]6C[C@H]7C[C@H]7N6C(=O)[C@@H](NC(=O)OC)C(C)C)nc5c4)c3)ccc2[nH]1)C(C)C | >10 | >10
24 | COC(=O)N[C@@H](C(=O)N1CCC[C@H]1c1ncc(-c2nc3cc4sc(-c5cnc([C@@H]6CCCN6C(=O)[C@H](NC(=O)OC)c6ccccc6)[nH]5)nc4cc3s2)[nH]1)c1ccccc1 | >100 | <10
25 | COC(=O)N[C@H]1CCC[C@H]2CC[C@@H](c3nc(-c4ccc(-c5ccc(-c6c[nH]c([C@@H]7CC[C@@H]8CCC[C@H](NC(=O)OC)C(=O)N87)n6)cc5)cc4)c[nH]3)N2C1=O | <10 | <10
26 | COC(=O)N[C@H](C(=O)N1[C@@H]2C[C@@H]2C[C@H]1c1nc2cc(-c3ccc(Oc4cccc5[nH]c([C@@H]6C[C@H]7C[C@H]7N6C(=O)[C@@H](NC(=O)OC)C(C)C)nc45)cc3)ccc2[nH]1)C(C)C | >100 | >10
27 | COC(=O)N[C@H](C(=O)N1CCC[C@H]1c1nc2ccc(C#CC#Cc3ccc4nc([C@@H]5CCCN5C(=O)[C@@H](NC(=O)OC)C(C)C)[nH]c4c3)cc2[nH]1)C(C)C | >10 | >100
28 | COC(=O)N[C@H](C(=O)N1CCC[C@H]1c1ncc(-c2cnc(-c3ncc(-c4cnc([C@@H]5CCCN5C(=O)[C@@H](NC(=O)OC)C(C)C)[nH]4)s3)s2)[nH]1)C(C)C | >100 | >10
29 | COC(=O)N[C@H](C(=O)N1C[C@H](C)CC1c1nc(-c2ccc(-c3ccc(-c4cnc([C@@H]5C[C@@H](C)CN5C(=O)[C@@H](NC(=O)OC)C(C)C)[nH]4)cc3)cc2)c[nH]1)C(C)C (stereo partly shown) | >100 | >100
30 | COC(=O)N[C@H](C(=O)N1CCC[C@H]1c1nc2cc(C#Cc3ccc(-c4[nH]cnc4[C@@H]4CCCN4C(=O)[C@@H](NC(=O)OC)C(C)C)cc3)ccc2[nH]1)C(C)C | >10 | <10
31 | COC(=O)N[C@H](C(=O)N1C[C@@H](C)C[C@H]1c1ncc(-c2ccc(-c3ccc(-c4cnc([C@@H]5C[C@H](C)CN5C(=O)[C@@H](NC(=O)OC)C(C)C)[nH]4)cc3)cc2)[nH]1)C(C)C | >100 | >10
32 | COC(=O)N[C@H](C(=O)N1CCC[C@H]1c1nc(-c2ccc(C#Cc3ccc4[nH]c([C@@H]5CCCN5C(=O)[C@@H](NC(=O)OC)C(C)C)nc4c3)cc2)c[nH]1)C(C)C | >100 | >100
33 | COC(=O)N[C@H](C(=O)N1CCC[C@H]1c1nc2cc(-c3ccc4c(ccc5[nH]c([C@@H]6CCCN6C(=O)[C@@H](NC(=O)OC)C(C)C)nc54)c3)ccc2[nH]1)C(C)C | >100 | >10
34 | COC(=O)N[C@H](C(=O)N1CCC[C@H]1c1nc2c([nH]1)CCc1cc(C#Cc3ccc4[nH]c([C@@H]5CCCN5C(=O)[C@@H](NC(=O)OC)C(C)C)nc4c3)ccc1-2)C(C)C | >100 | >100
35 | COC(=O)N[C@H](C(=O)N1CCC[C@H]1c1nc(-c2ccc(-c3ccc(-c4ccc5nc([C@@H]6CCCN6C(=O)[C@@H](NC(=O)OC)C(C)C)[nH]c5c4)cc3)cc2)c[nH]1)C(C)C | >10 | >10
